Columns and labels:
male mice of ddY line [1] = experiment: Blood oxygen and carbon dioxide partial pressure; assay type: in vivo; settings: 20 mg/kg, i.p.; blood from abdominal aorta 60 minutes after administration
Procedure: In this experiment, 4-week-old male mice of ddY line (10 individuals per one group) were used after fasting treatment for 24 hours.
After 60 minutes of the administration of each compound of the present invention, each mouse was subjected to ventrotomy under anesthesia with Nembutal® (Dainabot Co., Ltd.; 50 mg/kg, i.p.) to collect blood from abdominal aorta, and the collected blood sample was immediately checked for its oxygen partial pressure (PO₂) and carbon dioxide partial pressure (PCO₂) using a blood-aerotonometer (Model 170, Ciba-Corning).

male mice of ddY line [2] = assay type: in vivo; settings: 50 mg/kg, i.p., 60 minutes before KCN (3.0 mg/kg) tail intravenous injection; for Survival Time ±S.E.: time to respiratory arrest
[3] = tested on: platelet rich plasma (PRP); experiment: Platelet aggregation in platelet rich plasma after oral administration; assay type: in vivo, male rat; settings: 30 mg/kg, p.o., blood 90 minutes after administration
Procedure: Each drug to be tested was orally administered to each male rat which has been subjected to fasting treatment for 18 to 24 hours. After 90 minutes of the administration, median incision ventrotomy was carried out under ether anesthesia to collect 9 volumes of blood using a syringe filled with 1 volume of 3.8% sodium citrate solution (3.8% sodium citrate solution:blood = 1:9). After thorough mixing, the thus prepared mixture was centrifuged at 800 rpm for 10 minutes at room temperature to collect the resulting supernatant fluid as platelet rich plasma (PRP). The residual portion was centrifuged at 3,000 rpm for 15 minutes at room temperature to collect the resulting supernatant fluid as platelet poor plasma (PPP). The PRP was diluted with the PPP to adjust the number of platelets to 3×10⁵ ± 2×10⁴ cells/µl. A 450 µl portion of the thus diluted PRP was incubated at 37°C for 3 minutes and then mixed with 50 µl of 1×10⁻⁵ M of ADP or 1×10⁻⁵ g/ml of collagen. Thereafter, platelet aggregation test of the mixture was carried out using an aggregometer by measuring transmittance at 940 nm.

male rats of SD line = experiment: High cholesterol feed: blood viscosity, serum total cholesterol, triglyceride, GOT; assay type: in vivo; settings: 100 mg/kg/day, p.o., 4 days
Procedure: In this experiment, 5-week-old male rats of SD line (5 individuals per one group) were used after rearing them for 1 week using normal feed, and each compound of the present invention (100 mg/kg) was administered orally once a day for 4 days. Simultaneously with the commencement of the administration, the normal feed was replaced by a high cholesterol feed. After completion of the administration, they were subjected to fasting treatment for 24 hours. Thereafter, each rat was subjected to ventrotomy under anesthesia with Nembutal® (Dainabot Co., Ltd.; 50 mg/kg, i.p.) to collect blood from abdominal aorta, and the collected blood sample was checked for its blood viscosity using a viscometer (Biolyzer, Tokyo Keiki Co., Ltd.). At the same time, total cholesterol (Wako Pure Chemical Industries, Ltd.; Cholesterol E-test wako), triglyceride (Wako Pure Chemical Industries, Ltd.; Triglyceride G-test wako) and GOT (Wako Pure Chemical Industries, Ltd.; GOT-UV test-wako) in serum samples were measured.

[4] = tested on: rats of diabetes mellitus; experiment: Blood sugar level in streptozotocin-induced diabetes mellitus; assay type: in vivo, male rats of Wistar line; settings: 50 mg/kg, i.o.; administered for 1 week beginning 1 week after streptozotocin (40 mg/kg); serum
Procedure: In this experiment, 8-week-old male rats of Wistar line (5 individuals per one group) were used after rearing them for 1 week with normal feed. Streptozotocin (40 mg/kg) was administered by tail intravenous injection to obtain rats of diabetes mellitus. Beginning after 1 week of the streptozotocin administration, oral administration of each test drug has been carried out for 1 week, followed by 24 hours of fasting. Thereafter, blood sample was collected from lower abdominal vena cava under anesthesia with Nembutal® (1 ml/kg, i.p.). Serum samples were prepared from the thus collected blood samples and checked for their blood sugar levels, with the results shown in Table 9.

male rats of SHR line = experiment: Blood pressure in SHR rats; assay type: in vivo; settings: 10 mg/kg, p.o., 2 weeks
Procedure: In this experiment, 12-week-old male rats of SHR line (5 to 6 individuals per one group) were used after rearing them for 1 week with normal feed. Oral administration of each test drug has been carried out for 2 weeks and then blood pressure (mmHg) was measured using a small animal hemomanometer (UR-1000).

male SD rats = experiment: Thrombus formation in abdominal vena cava; assay type: in vivo; settings: 30 mg/kg, p.o.; dry weight of thrombus
Procedure: Each of male SD rats of 130 to 210 g in body weight was anesthetized with Nembutal® (50 mg/kg, i.p.) and subjected to median incision ventrotomy to release about a 2 cm portion of abdominal vena cava below the renal vein. Blood flow of the thus released vena cava was temporarily stopped for 5 minutes with 8 hemostatic clips. After recirculating blood for 5 minutes by removing the hemostatic clips, […] was ligated at a position just below the renal vein and the median-incised part was sutured. Two hours after the ligature, the thus treated rat was again subjected to ventrotomy to excise abdominal vena cava. The thus excised blood vessel was cut open on a filter paper which had been moistened with physiological saline, in order to take out thrombus. The thrombus thus obtained was washed with physiological saline to remove adhered blood and the like substances and then dried at 80°C for 12 hours or longer to measure its dry weight. In this instance, each drug to be tested was orally administered 90 minutes before the clipping to examine its effect by single administration on the formation of thrombus. Separately from this, each test drug was administered to 6-week-old male SD rat continuously for 7 days, thrombus was prepared in the eighth day in the same manner as described above and dry weight of the thrombus was measured, in order to examine effect of the continuous 7 day administration on the thrombus formation.

red blood cells = experiment: Inhibition of thermal hemolysis of red blood cells; assay type: cell-based, donryu rats; settings: 53°C for 20 minutes; for inhibition at 10 µM / inhibition at 50 µM / inhibition at 100 µM / inhibition at 200 µM / inhibition at 500 µM: Rattus norvegicus, Erythrocyte, 20 min, read-out: Hemolysis Inhibition Ratio (%) against Control
Procedure: Blood was collected from donryu rats of 150 to 200 g in body weight and centrifuged at 1,500 rpm for 5 minutes to obtain red blood cells. The red blood cells thus collected were diluted with 0.15 M phosphate buffer (pH 7.4) to prepare a 5% red blood cell suspension. A 3.8 ml portion of the thus prepared suspension was mixed with 0.2 ml solution of each compound of the present invention which has been adjusted to each level of the concentrations as shown in the following table, and the resulting mixture was shaken thoroughly and incubated at 53°C for 20 minutes. Thereafter, the thus incubated mixture was cooled rapidly with tap water and centrifuged at 3,000 rpm for 15 minutes, and absorbance at 540 nm of the resulting supernatant fluid was measured using a spectrophotometer (Hitachi: Type 200-20). Inhibition rate (%) of red blood cell hemolysis at each concentration of the compound was calculated based on the absorbance, with the results shown in Table 8.

Row | Compound | Carbon Dioxide Partial Pressure (male mice of ddY line [1]) [mmHg] | Oxygen Partial Pressure (male mice of ddY line [1]) [mmHg] | Lethality (%) (male mice of ddY line [2]) | Survival Time ±S.E. (male mice of ddY line [2]) [s] | Platelet Aggregation Ratio ±S.E. ([3]; ADP (1×10⁻⁵ M)) [%] | Platelet Aggregation Ratio ±S.E. ([3]; Collagen (1×10⁻⁵ g/ml)) [%] | GOT ±S.E. (male rats of SD line) [IU/ℓ] | Total Cholesterol ±S.E. (male rats of SD line) [mg/dL] | Triglyceride ±S.E. (male rats of SD line) [mg/dL] | Blood Sugar Level ± S.E. [4] [mg/dL] | Blood Pressure ±S.E. Average (male rats of SHR line) [mmHg] | Blood Pressure ±S.E. Maximum (male rats of SHR line) [mmHg] | Antithrombotic Effect: Thrombus weight ±S.E. (male SD rats) [mg] | inhibition at 10 µM (red blood cells; 0.01 mM) [%] | inhibition at 50 µM (red blood cells; 0.05 mM) [%] | inhibition at 100 µM (red blood cells; 0.1 mM) [%] | inhibition at 200 µM (red blood cells; 0.2 mM) [%] | inhibition at 500 µM (red blood cells; 0.5 mM) [%] | other results
1 | C[C@H](CC[C@H](O)[C@@H](C)CO)[C@H]1CC[C@H]2[C@@H]3[C@H](O)C[C@@H]4C[C@H](O)CC[C@]4(C)[C@H]3C[C@H](O)[C@]12C [Example 9, (24S)-(25S)-3α,7α,12α,24,26-pentahydroxy-5β-cholestane] | 43.3 | 88.1 | 80 | 101.2 ± 10.1 | 41.1 ± 1.21 | 49.1 ± 1.11 | 138 ± 8 | 441 ± 51 | 89 ± 41 | 125 ± 6.6 | 150 ± 8.9 | 199 ± 5.4 | 12.5 ± 2.44 | 28 | 23 | 38 | 51 | 65 | 
2 | C[C@H](CO)[C@H](O)CC[C@@H](C)[C@H]1CC[C@H]2[C@@H]3[C@H](O)C[C@@H]4C[C@H](O)CC[C@]4(C)[C@H]3C[C@H](O)[C@]12C [Example 12, (24R)-(25R)-3α,7α,12α,24,26-pentahydroxy-5β-cholestane] | 41.1 | 87.1 | 90 | 121.3 ± 3.21 | 46.5 ± 5.82 | 41.3 ± 3.81 | 141 ± 17 | 475 ± 75 | 115 ± 39 | 163 ± 3.8 | 138 ± 9.5 | 173 ± 3.6 | 12.2 ± 1.88 | 24 | 20 | 33 | 48 | 55 | 
3 | C[C@H](CCCO)[C@H]1CC[C@H]2[C@@H]3[C@H](O)C[C@@H]4C[C@H](O)CC[C@]4(C)[C@H]3C[C@H](O)[C@]12C [Illustrative Example 6, 3α,7α,12α,24-tetrahydroxy-5β-cholan] | 40.1 | 89.6 | 80 | 105.3 ± 6.84 | 43.5 ± 3.26 | 47.7 ± 2.58 | 136 ± 10 | 451 ± 50 | 107 ± 21 | 159 ± 5.7 | 148 ± 8.4 | 187 ± 6.3 | 12.4 ± 2.39 | 24 | 22 | 38 | 51 | 59 | 
4 | C[C@H](CC[C@H](O)CCO)[C@H]1CC[C@H]2[C@@H]3[C@H](O)C[C@@H]4C[C@H](O)CC[C@]4(C)[C@H]3C[C@H](O)[C@]12C [Illustrative Example 3, 27-nor-(24S)-(+)-3α,7α,12α,24,26-pentahydroxy-5β-cholestane] | 40.8 | 89.9 | 80 | 97.2 ± 8.51 | 50.3 ± 1.38 | 45.5 ± 2.66 | 158 ± 12 | 428 ± 68 | 105 ± 40 | 165 ± 6.6 | 141 ± 3.2 | 199 ± 2.6 | 12.3 ± 3.55 |  |  |  |  |  | Hemolysis Inhibition Ratio (%) against Control (red blood cells; 0.01 mM): 38%; Hemolysis Inhibition Ratio (%) against Control (red blood cells; 0.05 mM): 31%; Hemolysis Inhibition Ratio (%) against Control (red blood cells; 0.1 mM): 22%; Hemolysis Inhibition Ratio (%) against Control (red blood cells; 0.2 mM): 41%; Hemolysis Inhibition Ratio (%) against Control (red blood cells; 0.5 mM): 61%
5 | C[C@H](CC[C@@H](O)C1COC1)[C@H]1CC[C@H]2[C@@H]3[C@H](O)C[C@@H]4C[C@H](O)CC[C@]4(C)[C@H]3C[C@H](O)[C@]12C [Example 5, (24R)-(+)-26,27-epoxy-5β-cholestane-3α,7α,12α,24-tetrol] | 39.9 | 87.1 | 80 | 99.5 ± 7.21 | 48.5 ± 3.31 | 48.1 ± 2.65 | 141 ± 13 | 405 ± 99 | 91 ± 33 | 122 ± 7.8 | 148 ± 3.5 | 181 ± 3.5 | 11.2 ± 3.12 | 23 | 19 | 30 | 41 | 61 | 

— patent publication EP0489933A1, “BILE ALCOHOL AND DRUG CONTAINING THE SAME AS ACTIVE INGREDIENT” (TSUMURA CO., LTD., priority 1990, dated 1992)
